According to ChEMBL document CHEMBL4742403, “Tricyclic protein kinase inhibitors for promoting liver regeneration or reducing or preventing hepatocyte death” (2019):

Assays:
Homo sapiens [1] = species: Homo sapiens; experiment: Selectivity index, ratio of inhibition of full length human MKK7 (M1 to R419 residues) expressed in mammalian expression system assessed as residual percent of control binding at 100 nM relative to control to inhibition of partial length human MKK4 (S84 to D399 residues) expressed in mammalian expression system assessed as residual percent of control binding at 100 nM relative to control
Homo sapiens [2] = species: Homo sapiens; experiment: Selectivity index, ratio of inhibition of full length human JNK1 (M1 to Q384 residues) expressed in mammalian expression system assessed as residual percent of control binding at 100 nM relative to control to inhibition of partial length human MKK4 (S84 to D399 residues) expressed in mammalian expression system assessed as residual percent of control binding at 100 nM relative to control
Homo sapiens [3] = species: Homo sapiens; experiment: Selectivity index, ratio of inhibition of B-raf (unknown origin) to inhibition of partial length human MKK4 (S84 to D399 residues) expressed in mammalian expression system assessed as residual percent of control binding at 100 nM relative to control

Measured: Selectivity ratio

CS(=O)(=O)Nc1c(F)ccc(C(=O)c2ccc3[nH]c4ncc(Cl)cc4c3c2)c1F
> 30: all assays above

CCCS(=O)(=O)Nc1ccc(F)c(C(=O)c2ccc3[nH]c4ncc(-c5ccc(S(=O)(=O)NCC(O)CO)nc5)cc4c3c2)c1F (configuration not stated)
> 30: all assays above

CCCS(=O)(=O)Nc1ccc(F)c(C(=O)c2ccc3[nH]c4ncc(-c5ccc(C(=O)NCC(O)CO)nc5)cc4c3c2)c1F (configuration not stated)
> 30: all assays above

CCS(=O)(=O)Nc1ccc(F)c(C(=O)c2ccc3[nH]c4ncc(-c5ccc(S(N)(=O)=O)cc5)cc4c3c2)c1F
> 30: all assays above

CCCS(=O)(=O)Nc1ccc(F)c(C(=O)c2ccc3[nH]c4ncc(-c5ccc(S(N)(=O)=O)cc5)cc4c3c2)c1F
> 30: all assays above

CCCS(=O)(=O)Nc1ccc(F)c(C(=O)c2ccc3[nH]c4ncc(-c5ccncc5)cc4c3c2)c1F
> 30: all assays above

CCCS(=O)(=O)Nc1ccc(F)c(C(=O)c2ccc3[nH]c4ncc(-c5ccc(-c6nnn[nH]6)cc5)cc4c3c2)c1F
> 30: all assays above

CCCS(=O)(=O)Nc1ccc(F)c(C(=O)c2ccc3[nH]c4ncc(-c5ccc(N)nc5)cc4c3c2)c1F
> 30: all assays above

CS(=O)(=O)Nc1ccc(F)c(C(=O)c2ccc3[nH]c4ncc(-c5ccc(S(N)(=O)=O)cc5)cc4c3c2)c1F
> 30: all assays above

CCCS(=O)(=O)Nc1cccc(C(=O)c2ccc3[nH]c4ncc(Cl)cc4c3c2)c1F
> 30: all assays above

CCCS(=O)(=O)Nc1ccc(F)c(C(=O)c2ccc3[nH]c4ncc(Cl)cc4c3c2)c1F
> 30: all assays above

CCCS(=O)(=O)Nc1ccc(F)c(C(=O)c2ccc3[nH]c4ncc(-c5ccc(C(=O)O)cc5)cc4c3c2)c1F
> 30: all assays above

CCCS(=O)(=O)Nc1ccc(F)c(C(=O)c2ccc3[nH]c4ncc(-c5ccc(OCC(O)CO)cc5)cc4c3c2)c1F (configuration not stated)
> 30: all assays above

CCCS(=O)(=O)Nc1ccc(F)c(C(=O)c2ccc3[nH]c4ncc(-c5ccc(C(N)=O)cc5)cc4c3c2)c1F
> 30: all assays above
